Assay results taken from patent publication US6787653B2, “Preparation process of biphenylcarboxylic acid amide derivatives” (Kowa Co., Ltd., priority 2002, dated 2004).
pIC50: −log10 of the molar value. Structures can show the parent of a compound that is named as a salt.

Assays:
[1] = system: IgE antibody production by B cells; test: Evaluation of inhibitory activity against IgE antibody production; format: cell-based; settings: B-cell; mouse (Balb/C) spleen B cells cultured with LPS and mouse IL-4; IgE in culture supernatant by ELISA
Experimental: After the spleen was enucleated from a mouse (Balb/C, male, aged 8 weeks) and shredded in 0.3 wt. % BSA/HBSS, single cells were obtained using a 200-mesh screen. The single cells were then hemolyzed by a 0.75 wt. % ammonium chloride·17 mmol/L Tris solution and a splenocyte suspension (1×10^7/mL) was prepared using RPMI 1640 medium/25 mmol/L HEPES/0.3 wt. % BSA. After the suspension was reacted with a rat anti-mouse Thy-1,2 monoclonal antibody (product of Cedarlane Co.) at 4° C. for 1 hour, the reaction mixture was centrifuged and the sediment cells were suspended again (1×10^7/mL, RPMI/HEPES/BSA). After the suspension-was reacted with a low-cytotoxic rabbit complement (product of Cedarlane Co.) at 37° C. for 1 hour, killed cells were removed by specific gravity centrifugation using lympholyte M (product of Cedarlane Co.) to obtain a B cell fraction as viable cells.
After culturing B cells ([…]) for one day together with LPS (E. coli 026:B6, product of DIFCO Co.) on a 96-well plate, mouse IL-4 (product of Genzyme Co.) was added. The mixture was cultured for further 7 days. Each test compound was added on the first day of the culture. After culturing, the amount of IgE antibody in a culture supernatant was assayed by ELISA, and the inhibitory activity of the test compound against production of an IgE antibody was calculated.

pIC50 [1]	melting point	Structure (SMILES)
7.10		COc1cc(-c2ccc(C(=O)N3CCN(CCCN4CCN(C(=O)c5ccc(-c6cc(OC)c(SC)c(OC)c6)cc5)CC4)CC3)cc2)cc(OC)c1SC [Example 3, 1,3-Bis[4-[4-(3,5-dimethoxy-4-methylthiophenyl)benzoyl]-1-piperazinyl]propane Dihydrochloride]
	240 °C (dec.)	COc1cc(-c2ccc(C(=O)N3CCN(CCCN4CCN(C(=O)c5ccc(-c6cc(OC)c(C(C)=O)c(OC)c6)cc5)CC4)CC3)cc2)cc(OC)c1C(C)=O (as salt: hydrochloride) [Example 5, 1,3-Bis[4-[4-(4-acetyl-3,5-dimethoxyphenyl)benzoyl]-1-piperazinyl]propane Dihydrochloride]
	245 °C (dec.)	CCOc1c(OC)cc(-c2ccc(C(=O)N3CCN(CCCN4CCN(C(=O)c5ccc(-c6cc(OC)c(OCC)c(OC)c6)cc5)CC4)CC3)cc2)cc1OC (as salt: methanesulfonate) [Example 4, 1,3-Bis[4-[4-(4-ethoxy-3,5-dimethoxyphenyl)benzoyl]-1-piperazinyl]propane Dimethanesulfonate]
	235.5 °C (dec.)	COc1cc(-c2ccc(C(=O)N3CCN(CCCN4CCN(C(=O)c5ccc(-c6cc(OC)c(OC(C)C)c(OC)c6)cc5)CC4)CC3)cc2)cc(OC)c1OC(C)C (as salt: methanesulfonate) [Example 2, 1,3-Bis [4-[4-(4-isopropoxy-3,5-dimethoxyphenyl)benzoyl]-1-piperazinyl]propane Dimethanesulfonate]
6.22		COc1cc(-c2ccc(C(=O)N3CCN(CCCN4CCN(C(=O)c5ccc(-c6cc(OC)c(C(C)=O)c(OC)c6)cc5)CC4)CC3)cc2)cc(OC)c1C(C)=O [Example 5, 1,3-Bis[4-[4-(4-acetyl-3,5-dimethoxyphenyl)benzoyl]-1-piperazinyl]propane Dihydrochloride]
6.70		COc1cc(-c2ccc(C(=O)N3CCN(CCCN4CCN(C(=O)c5ccc(-c6cc(OC)c(OC(C)C)c(OC)c6)cc5)CC4)CC3)cc2)cc(OC)c1OC(C)C [Example 2, 1,3-Bis [4-[4-(4-isopropoxy-3,5-dimethoxyphenyl)benzoyl]-1-piperazinyl]propane Dimethanesulfonate]
7.00		COc1cc(-c2ccc(C(=O)N3CCN(CCCN4CCN(C(=O)c5ccc(-c6cc(OC)c(OC)c(OC)c6)cc5)CC4)CC3)cc2)cc(OC)c1OC [Example 1, 1,3-Bis[4-[4-(3,4,5-trimethoxyphenyl)benzoyl]-1-piperazinyl]propane Dihydrochloride]
	266 °C (dec.)	CCCOc1c(OC)cc(-c2ccc(C(=O)N3CCN(CCCN4CCN(C(=O)c5ccc(-c6cc(OC)c(OCCC)c(OC)c6)cc5)CC4)CC3)cc2)cc1OC (as salt: hydrochloride) [Example 6, 1,3-Bis[4-[4-(3,5-dimethoxy-4-propoxyphenyl)benzoyl]-1-piperazinyl]propane Dihydrochloride]
6.52		CCCOc1c(OC)cc(-c2ccc(C(=O)N3CCN(CCCN4CCN(C(=O)c5ccc(-c6cc(OC)c(OCCC)c(OC)c6)cc5)CC4)CC3)cc2)cc1OC [Example 6, 1,3-Bis[4-[4-(3,5-dimethoxy-4-propoxyphenyl)benzoyl]-1-piperazinyl]propane Dihydrochloride]
6.40		CCOc1c(OC)cc(-c2ccc(C(=O)N3CCN(CCCN4CCN(C(=O)c5ccc(-c6cc(OC)c(OCC)c(OC)c6)cc5)CC4)CC3)cc2)cc1OC [Example 4, 1,3-Bis[4-[4-(4-ethoxy-3,5-dimethoxyphenyl)benzoyl]-1-piperazinyl]propane Dimethanesulfonate]
